Data: PubChem BioAssay AID256 (DTP/NCI, 2004)
Values joined by “and” are separate entries in the source; they are usually repeats but may differ in a detail not shown here. Equal values may be shown once. Toxic doses and inconclusive results are not listed. The calls were made as follows: active = survival T/C of 150% or more; inactive = T/C below 125% in these data.

Tested on: CD2F1 mice, L1210 leukemia ip, survival T/C
Assay: NCI In Vivo Anticancer Drug Screen. Data for tumor model L1210 Leukemia (intraperitoneal) in CD2F1 (CDF1) mice
Settings: higher = longer survival
In short: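 Each value reflects a quotient of treated over vehicle control outcomes in mice with a transplanted tumor.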

[1] = endpoint: mean survival time, dose: 200.0 mg/kg/injection, schedule: Q04DX003 (ip), vehicle: saline with Tween-80
[2] = endpoint: mean survival time, dose: 400.0 mg/kg/injection, schedule: Q04DX003 (ip), vehicle: saline with Tween-80
[3] = endpoint: mean survival time, dose: 50.0 mg/kg/injection, schedule: Q01DX009 (ip), vehicle: saline with Tween-80
[4] = endpoint: mean survival time, dose: 200.0 mg/kg/injection, schedule: Q01DX009 (ip), vehicle: saline with Tween-80
[5] = endpoint: mean survival time, dose: 100.0 mg/kg/injection, schedule: Q04DX003 (ip), vehicle: saline with Tween-80
[6] = endpoint: mean survival time, dose: 100.0 mg/kg/injection, schedule: Q04DX002 (ip), vehicle: saline with Tween-80
[7] = endpoint: mean survival time, dose: 200.0 mg/kg/injection, schedule: Q04DX002 (ip), vehicle: saline with Tween-80
[8] = endpoint: mean survival time, dose: 100.0 mg/kg/injection, schedule: Q01DX009 (ip), vehicle: saline with Tween-80

Measured: T/C

COC(=O)c1ccc(N2C(=O)C=CC2=O)cc1
inactive: endpoint: mean survival time, dose: 1.5 mg/kg/injection, schedule: Q01DX009 (ip), vehicle: saline with Tween-80 108 % of control | endpoint: mean survival time, dose: 3.0 mg/kg/injection, schedule: Q01DX009 (ip), vehicle: saline with Tween-80 108 % of control

CC(=O)OCC1OC(n2ncc3c2ncn2nnnc32)C(OC(C)=O)C1OC(C)=O (stereo not given)
inactive: endpoint: mean survival time, dose: 18.75 mg/kg/injection, schedule: Q01DX005 (ip), vehicle: distilled water + alcohol 100 % of control | endpoint: mean survival time, dose: 37.5 mg/kg/injection, schedule: Q01DX005 (ip), vehicle: distilled water + alcohol 91 % of control | endpoint: mean survival time, dose: 75.0 mg/kg/injection, schedule: Q01DX005 (ip), vehicle: distilled water + alcohol 103 % of control | endpoint: mean survival time, dose: 150.0 mg/kg/injection, schedule: Q01DX005 (ip), vehicle: distilled water + alcohol 100 % of control | endpoint: mean survival time, dose: 300.0 mg/kg/injection, schedule: Q01DX005 (ip), vehicle: distilled water + alcohol 103 % of control

c1ccc(Oc2ccc(-c3ccc(Oc4ccccc4)cc3)cc2)cc1
inactive: [1] 95 % of control | [2] 91 % of control

O=c1[nH]c(=O)n(C2CC(O)C(CO)O2)cc1CN1CCCC1 (stereo not given)
inactive: endpoint: mean survival time, dose: 6.25 mg/kg/injection, schedule: Q01DX005 (ip), vehicle: water 95 % of control | endpoint: mean survival time, dose: 12.5 mg/kg/injection, schedule: Q01DX005 (ip), vehicle: water 109 % of control | endpoint: mean survival time, dose: 25.0 mg/kg/injection, schedule: Q01DX005 (ip), vehicle: water 87 % of control | endpoint: mean survival time, dose: 50.0 mg/kg/injection, schedule: Q01DX005 (ip), vehicle: water 102 % of control | endpoint: mean survival time, dose: 100.0 mg/kg/injection, schedule: Q01DX005 (ip), vehicle: water 102 % of control | endpoint: mean survival time, dose: 200.0 mg/kg/injection, schedule: Q01DX005 (ip), vehicle: water 96 % of control | endpoint: mean survival time, dose: 400.0 mg/kg/injection, schedule: Q01DX005 (ip), vehicle: water 96 % of control

OCC1OC([Se])C(O)C(O)C1O.[CH3][Sb][CH3] (stereo not given)
inactive: endpoint: mean survival time, dose: 50.0 mg/kg/injection, schedule: Q01DX009 (ip), vehicle: Klucel (hydroxypropylcellulose) (HPC) 88 % of control

CCCCCCC(O)C[N+](=O)[O-] (stereo not given)
inactive: [3] 96 % of control | [4] 100 % of control

O=CNc1ccc(I)cc1
inactive: [5] 106 % of control | [1] 98 % of control | [2] 101 % of control

CN(C)S(=O)(=O)C=C(c1ccccc1)c1ccccc1
inactive: [5] 107 % of control | [1] 96 % of control | [2] 94 % of control

O=S1(=O)C[CH-]C1.[C-]#[O+].[C-]#[O+].[C-]#[O+].[W].[c-]1[c-][c-][cH-][c-]1
inactive: endpoint: mean survival time, dose: 50.0 mg/kg/injection, schedule: Q04DX002 (ip), vehicle: saline with Tween-80 93 % of control | [6] 101 % of control | [7] 89 % of control

Cc1cccc(C)c1NC1=CC(=O)C(=O)c2ccccc21
inactive: endpoint: mean survival time, dose: 75.0 mg/kg/injection, schedule: Q01DX001 (ip), vehicle: saline 95 % of control | endpoint: mean survival time, dose: 150.0 mg/kg/injection, schedule: Q01DX001 (ip), vehicle: saline 89 % of control | endpoint: mean survival time, dose: 300.0 mg/kg/injection, schedule: Q01DX001 (ip), vehicle: saline 97 % of control

COc1ccc(-c2cc(C(=O)O)c3cccc(C)c3n2)cc1
inactive: [3] 95 % of control | [8] 95 % of control | [5] 98 % of control | [4] 95 % of control | [1] 95 % of control

CCCCCCCCCCCCCCCC(CCCCCC)CCCCCC
inactive: endpoint: mean survival time, dose: 100.0 mg/kg/injection, schedule: Q01DX001 (ip), vehicle: saline sonified 102 % of control | endpoint: mean survival time, dose: 200.0 mg/kg/injection, schedule: Q01DX001 (ip), vehicle: saline sonified 98 % of control | endpoint: mean survival time, dose: 400.0 mg/kg/injection, schedule: Q01DX001 (ip), vehicle: saline sonified 102 % of control

O=C1CN=C(c2ccccc2)O1
inactive: endpoint: median survival time, dose: 50.0 mg/kg/injection, schedule: Q04DX002 (ip), vehicle: saline with Tween-80 100 % of control | endpoint: median survival time, dose: 100.0 mg/kg/injection, schedule: Q04DX002 (ip), vehicle: saline with Tween-80 100 % of control | endpoint: median survival time, dose: 200.0 mg/kg/injection, schedule: Q04DX002 (ip), vehicle: saline with Tween-80 111 % of control | endpoint: median survival time, dose: 400.0 mg/kg/injection, schedule: Q04DX002 (ip), vehicle: saline with Tween-80 100 % of control

Cc1cc(C)[nH]c(=S)n1
inactive: [3] 100 % of control | [8] 96 % of control | [4] 96 % of control

NS(N)(=O)=O
inactive: endpoint: mean survival time, dose: 100.0 mg/kg/injection, schedule: Q01DX009 (ip), vehicle: saline 105 % of control | endpoint: mean survival time, dose: 200.0 mg/kg/injection, schedule: Q01DX009 (ip), vehicle: saline 100 % of control | endpoint: mean survival time, dose: 400.0 mg/kg/injection, schedule: Q01DX009 (ip), vehicle: saline 97 % of control

O=C(O)c1cccnc1F
inactive: [5] 94 % of control | [1] 98 % of control | [2] 96 % of control

CCN(CC)c1ccc(C)cc1Cl
inactive: endpoint: mean survival time, dose: 100.0 mg/kg/injection, schedule: Q04DX003 (ip), vehicle: saline sonified 102 % of control

O=C(Nc1ccc(Nc2ccccc2)cc1)Nc1cc([N+](=O)[O-])ccc1Cl
inactive: endpoint: mean survival time, dose: 50.0 mg/kg/injection, schedule: Q01DX001 (ip), vehicle: saline with Tween-80 92 % of control | endpoint: mean survival time, dose: 100.0 mg/kg/injection, schedule: Q01DX001 (ip), vehicle: saline with Tween-80 86 % of control and 90 % of control | [8] 91 % of control and 98 % of control | [6] 93 % of control and 100 % of control | [5] 87 % of control | endpoint: mean survival time, dose: 200.0 mg/kg/injection, schedule: Q01DX001 (ip), vehicle: saline with Tween-80 90 % of control | [4] 100 % of control and 109 % of control | [7] 91 % of control and 92 % of control | [1] 95 % of control | endpoint: mean survival time, dose: 400.0 mg/kg/injection, schedule: Q01DX001 (ip), vehicle: saline with Tween-80 91 % of control | endpoint: mean survival time, dose: 400.0 mg/kg/injection, schedule: Q01DX009 (ip), vehicle: saline with Tween-80 103 % of control and 111 % of control | endpoint: mean survival time, dose: 400.0 mg/kg/injection, schedule: Q04DX002 (ip), vehicle: saline with Tween-80 92 % of control and 98 % of control | [2] 98 % of control

CCCCCCCCCCCCCCCCOc1ccccc1CNc1cc(C(F)(F)F)ccc1Cl
inactive: endpoint: mean survival time, dose: 100.0 mg/kg/injection, schedule: Q01DX009 (ip), vehicle: other 89 % of control | endpoint: mean survival time, dose: 200.0 mg/kg/injection, schedule: Q01DX009 (ip), vehicle: other 103 % of control | endpoint: mean survival time, dose: 400.0 mg/kg/injection, schedule: Q01DX009 (ip), vehicle: other 91 % of control

C=C(C)C(=O)OCC(O)C[N+](C)(C)C (stereo not given)
inactive: endpoint: mean survival time, dose: 50.0 mg/kg/injection, schedule: Q04DX003 (ip), vehicle: saline with Tween-80 96 % of control | [5] 87 % of control

CC(C)(CC(=O)O)Cc1ccc([N+](=O)[O-])cc1
inactive: [5] 102 % of control | [1] 98 % of control | [2] 102 % of control

Nc1nc2c(c(=O)[nH]1)N(C=O)C(CNc1ccc(C(=O)N[C@@H](CCC(=O)O)C(=O)O)cc1)CN2 (stereo not given in full)
inactive: endpoint: mean survival time, dose: 67.0 mg/kg/injection, schedule: Q01DX009 (sc), vehicle: other 105 % of control | endpoint: mean survival time, dose: 100.0 mg/kg/injection, schedule: Q01DX009 (sc), vehicle: other 101 % of control | endpoint: mean survival time, dose: 150.0 mg/kg/injection, schedule: Q01DX009 (sc), vehicle: other 101 % of control | endpoint: mean survival time, dose: 225.0 mg/kg/injection, schedule: Q01DX009 (sc), vehicle: other 108 % of control | endpoint: mean survival time, dose: 338.0 mg/kg/injection, schedule: Q01DX009 (sc), vehicle: other 103 % of control

COc1ccc(-c2nc(N)ncc2C)cc1
inactive: endpoint: mean survival time, dose: 100.0 mg/kg/injection, schedule: Q04DX002 (ip), vehicle: other 96 % of control | endpoint: mean survival time, dose: 200.0 mg/kg/injection, schedule: Q04DX002 (ip), vehicle: other 96 % of control | endpoint: mean survival time, dose: 400.0 mg/kg/injection, schedule: Q04DX002 (ip), vehicle: other 101 % of control

Cc1n(Cc2ccc(Cl)cc2Cl)cc[n+]1Cc1ccccc1
inactive: endpoint: mean survival time, dose: 10.0 mg/kg/injection, schedule: Q04DX003 (ip), vehicle: Klucel (hydroxypropylcellulose) (HPC) 100 % of control | endpoint: mean survival time, dose: 20.0 mg/kg/injection, schedule: Q04DX003 (ip), vehicle: Klucel (hydroxypropylcellulose) (HPC) 105 % of control | endpoint: mean survival time, dose: 40.0 mg/kg/injection, schedule: Q04DX003 (ip), vehicle: Klucel (hydroxypropylcellulose) (HPC) 92 % of control

Cc1ccc(C(=O)CCl)c(C)c1
inactive: endpoint: mean survival time, dose: 25.0 mg/kg/injection, schedule: Q04DX003 (ip), vehicle: Klucel (hydroxypropylcellulose) (HPC) 102 % of control | endpoint: mean survival time, dose: 50.0 mg/kg/injection, schedule: Q04DX003 (ip), vehicle: Klucel (hydroxypropylcellulose) (HPC) 103 % of control

c1ccc2[nH]c(CN3CCCCC3)cc2c1
inactive: endpoint: mean survival time, dose: 12.5 mg/kg/injection, schedule: Q01DX009 (ip), vehicle: saline with Tween-80 106 % of control | endpoint: mean survival time, dose: 25.0 mg/kg/injection, schedule: Q01DX009 (ip), vehicle: saline with Tween-80 100 % of control | [3] 90 % of control
